Experimental data from US20260159519A1, “IMIDAZOPYRIDAZINE SUBSTITUTED BENZENE RING DERIVATIVE, PREPARATION METHOD, PHARMACEUTICAL COMPOSITION AND USE” (SHANGHAI SIMR BIOTECHNOLOGY CO., LTD., priority 2022, published 2026).

System: Chinese hamster ovary cells (CHO-WBL cells)
Test: In vitro micronucleus assay
Format: cell-based
Conditions: 3-hour treatment with S9, 3-hour and 24-hour treatment without S9; overall judgment
Text: The experimental design is based on the experimental purpose and follows the following experimental design guidelines: • (1) OECD Guidelines for the Testing of Chemicals 487, In Vitro Mammalian Cell Micronucleus Test, revised in 2016; • (2) ICH S2 (R1): Guideline on Genotoxicity Testing and Data Interpretation for Pharmaceuticals Intended for Human Use, validated in November 2011.
Experimental system and selection rationale: Chinese hamster ovary cells (CHO-WBL cells) were used as an experimental system in this experiment. The cell line has a karyotype containing 21 chromosomes and a growth cycle of 12 to 13 hours. CHO-WBL cells were originally derived from Dr. S. Wolff at the University of California in San Francisco, USA, then cloned in the laboratory of Dr. A. Bloom at Columbia University in New York, and cloned again by Dr. S. Galloway at Litton Bionetics Laboratory in Maryland. The cell stock solution was stored in liquid nitrogen. The karyotype of each batch of cell stock solution was identified, and tests confirmed that it was free from mycoplasma contamination. The number of passages after cell cloning will not exceed 15. Chinese hamster ovary cells were chosen because the cell line is recommended for use in OECD Guidelines for the Testing of Chemicals 487 and has been proven to be sensitive to a variety of clastogens/aneugens (Marilyn J. et al., 2006).
Medium and cell growth conditions: Chinese hamster ovary cells were cultured in McCoy's 5A complete medium (McCoy's 5A complete medium supplemented with 10 vt % fetal bovine serum, 2 mM GlutaMAX™ medium, 100 units/mL penicillin, and 100 μg/mL streptomycin), and grown in a standard environment (a high-humidity incubator with a temperature of 37° C. and a CO2 concentration of 5%). The day before administration, CHO-WBL cells in exponential growth phase were inoculated onto an eight-well cell culture slide at a density of 8×10^3 cells/400 μL McCoy's 5A complete medium/well.
Metabolic activation system: The in vitro metabolic activation system (Maron and Ames, 1983) contains a rat liver microsomal homogenate induced by β-naphthoflavone and phenobarbital (referred to as S9) and an NADPH-generating system (i.e., NADP disodium and isocitric acid trisodium). S9 was purchased from CHI Scientific, Inc. and stored in a −75° C. refrigerator prior to use. Preparation method for S9 homogenate: Male Sprague Dawley rats were intraperitoneally injected with a single dose of p-naphthoflavone and phenobarbital, followed by material preparation.
Preparation of S9 metabolic activation system: NADP disodium salt and isocitric acid trisodium salt were first dissolved in serum-free medium to prepare a core solution, which was then filtered through a 0.22 µm filter to sterilize. Immediately before use, the S9 homogenate was thawed, and the components of the S9 metabolic activation system were mixed in the proportions shown in Table 2 below.
Dose exploration experiment: In the dose exploration experiment, 8 administration concentrations were established in each administration treatment series. For each concentration of the test substance, 1 well of cells was set up. According to the ICH S2 (R1) guidelines, when not limited by the solubility of the test substance in the solvent/medium or the cytotoxicity of the test substance, the recommended maximum concentration is 1 mM or 0.5 mg/mL, whichever is lower. However, when limited by solubility, the test maximum concentration is the minimum concentration at which a small amount of precipitate is visible in the medium under the microscope. To ensure that the upper limit of solubility in the medium can be reached, up to 4 concentrations with visible precipitate can be tested.

Structure (SMILES) | Results of in vitro micronucleus assay
CCn1cnc2c(-c3ccc(F)c(-c4cc5oc(=O)n(C)c5cc4OC)c3)cnnc21 [Example 87, 6-(5-(7-Ethyl-7H-imidazo[4,5-c]pyridazin-4-yl)-2-fluorophenyl)-5-methoxy-3-methylbenzo[d]oxazol-2(3H)-one] | Negative
COc1cc2c(cc1-c1cc(-c3cnnc4c3ncn4C(C)C)ccc1F)OCC(=O)N2C [Example 36, 7-(2-Fluoro-5-(7-isopropyl-7H-imidazo[4,5-c]pyridazin-4-yl)phenyl)-6-methoxy-4-methyl-2H-benzo[b][1,4]oxazin-3(4H)-one] | Negative
CCN1C(=O)COc2cc(-c3cc(-c4cnnc5c4ncn5CC)ccc3F)c(OC)cc21 [Example 31, 4-Ethyl-7-(5-(7-ethyl-7H-imidazo[4,5-c]pyridazin-4-yl)-2-fluorophenyl)-6-methoxy-2H-benzo[b][1,4]oxazin-3(4H)-one] | Negative
CCn1cnc2c(-c3ccc(F)c(-c4cc5c(cc4OC)N(C)C(=O)C5)c3)cnnc21 [Example 161, 5-(5-(7-Ethyl-7H-imidazo[4,5-c]pyridazin-4-yl)-2-fluorophenyl)-6-methoxy-1-methyldihydro-2-one] | Negative
CCn1cnc2c(-c3ccc(F)c(-c4cc5c(cc4OC)N(C)C(=O)CO5)c3)cnnc21 [Example 42, 7-(5-(7-Ethyl-7H-imidazo[4,5-c]pyridazin-4-yl)-2-fluorophenyl)-6-methoxy-4-methyl-2H-benzo[b][1,4]oxazin-3(4H)-one] | Negative
